Data on 30 compounds can be found in patent publication US20240383904A1, “HETEROCYCLIC COMPOUNDS” (Hoffmann-La Roche Inc., priority 2021, published 2024).

This assay has as its target T1, MAGL (Homo sapiens, UniProt Q99685).
T1 sequence (Q99685 1-303): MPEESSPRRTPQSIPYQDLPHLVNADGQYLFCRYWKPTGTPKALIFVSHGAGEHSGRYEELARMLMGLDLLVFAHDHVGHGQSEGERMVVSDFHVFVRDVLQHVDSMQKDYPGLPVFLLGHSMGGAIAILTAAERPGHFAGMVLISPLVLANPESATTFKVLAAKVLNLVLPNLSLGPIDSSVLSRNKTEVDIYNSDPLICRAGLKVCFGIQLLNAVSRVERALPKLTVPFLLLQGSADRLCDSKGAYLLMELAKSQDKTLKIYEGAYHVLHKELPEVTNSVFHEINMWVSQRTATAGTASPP
Nature of the assay: 2-AG assay: MAGL inhibitory activity by hydrolysis of 2-arachidonoylglycerol to arachidonic acid, followed by mass spectrometry. As to conditions: 15 min preincubation, 30 min reaction at RT, 8 μM 2-arachidonoylglycerol. The format is biochemical.
As to `O=C1CCC2(CN(C(=O)N3CC4(CC(Cc5cncc(S(=O)(=O)C(F)(F)F)c5)C4)C3)C2)N1` [Example 252, 2-[6-[[5-(trifluoromethylsulfonyl)-3-pyridyl]methyl]-2-azaspiro[3.3]heptane-2-carbonyl]-2,5-diazaspiro[3.4]octan-6-one], the IC50 came out at 9.83 nM. That is a single-digit nanomolar value. For `O=C1COCC2(CN(C(=O)N3CC4(CC(Cc5cncc(S(=O)(=O)C(F)(F)F)c5)C4)C3)C2)N1` [Example 253, 2-[6-[[5-(trifluoromethylsulfonyl)-3-pyridyl]methyl]-2-azaspiro[3.3]heptane-2-carbonyl]-8-oxa-2,5-diazaspiro[3.5]nonan-6-one] the value was 33.5 nM; for `O=C1COCC2(CN(C(=O)N3CC4(CC(Cc5cc(F)cc(S(=O)(=O)C(F)(F)F)c5)C4)C3)C2)N1` [Example 254, 2-[6-[[3-fluoro-5-(trifluoromethylsulfonyl)phenyl]methyl]-2-azaspiro[3.3]heptane-2-carbonyl]-8-oxa-2,5-diazaspiro[3.5]nonan-6-one], 4.84 nM.

Regarding `CS(=N)(=O)c1cc(CC2CC3(C2)CN(C(=O)N2CC4(CCC(=O)N4)C2)C3)cc(C(F)(F)F)c1` (stereo not drawn) [Example 255, 2-[6-[[3-(methylsulfonimidoyl)-5-(trifluoromethyl)phenyl]methyl]-2-azaspiro[3.3]heptane-2-carbonyl]-2,5-diazaspiro[3.4]octan-6-one], inhibition was half-maximal at 4.19 nM (IC50).

Compound `O=C1CCC2(CN(C(=O)N3CC4(CCN(Cc5cccc(S(=O)(=O)C(F)(F)F)c5)C4)C3)C2)N1` [Example 256, 2-[7-[[3-(trifluoromethylsulfonyl)phenyl]methyl]-2,7-diazaspiro[3.4]octane-2-carbonyl]-2,5-diazaspiro[3.4]octan-6-one] gave a concentration for half-maximal inhibition (IC50) of 26.9 nM. In the case of `O=C1CCC2(CN(C(=O)N3CC4(CC(Cc5cc(C(F)F)[nH]n5)C4)C3)C2)N1` [Example 257, 2-[6-[[5-(difluoromethyl)-1H-pyrazol-3-yl]methyl]-2-azaspiro[3.4]heptane-2-carbonyl]-2,5-diazaspiro[3.4]octan-6-one] it was 16.5 nM. In the case of `O=C1CCC2(CN(C(=O)N3CC4(CN(Cc5ccc(S(=O)(=O)C(F)(F)F)cc5F)C4)C3)C2)N1` [Example 258, 2-[6-[[2-fluoro-4-(trifluoromethylsulfonyl)phenyl]methyl]-2,6-diazaspiro[3.4]heptane-2-carbonyl]-2,5-diazaspiro[3.4]octan-6-one] it was 18.6 nM. Compound `O=C1CCC2(CN(C(=O)N3CC4(CC(Cn5cc(C(F)(F)F)ccc5=O)C4)C3)C2)N1` [Example 259, 2-[6-[[2-oxo-5-(trifluoromethyl)-1-pyridyl]methyl]-2-azaspiro[3.3]heptane-2-carbonyl]-2,5-diazaspiro[3.4]octan-6-one] registered an IC50 of 25.9 nM.

With `O=C1COCC2(CN(C(=O)N3CC4(CCN(Cc5cccc(S(=O)(=O)C(F)(F)F)c5)C4)C3)C2)N1` [Example 260, 2-[7-[[3-(trifluoromethylsulfonyl)phenyl]methyl]-2,7-diazaspiro[3.4]octane-2-carbonyl]-8-oxa-2,5-diazaspiro[3.5]nonan-6-one], the midpoint of inhibition, the IC50, lay at 80.7 nM. Take `N#Cc1ncc(CC2CC3(C2)CN(C(=O)N2CC4(COC(=O)N4)C2)C3)cc1C(F)(F)F` [Example 261, 5-[[2-(6-oxo-7-oxa-2,5-diazaspiro[3.4]octane-2-carbonyl)-2-azaspiro[3.3]heptan-6-yl]methyl]-3-(trifluoromethyl)pyridine-2-carbonitrile]: it took 0.43 nM to reach half-maximal inhibition (IC50).

As to `O=C1CCC2(CN(C(=O)N3CC4(CC(Cc5ccc(S(=O)(=O)C(F)(F)F)cn5)C4)C3)C2)N1` [Example 262, 2-[6-[[5-(trifluoromethylsulfonyl)-2-pyridyl]methyl]-2-azaspiro[3.3]heptane-2-carbonyl]-2,5-diazaspiro[3.4]octan-6-one], the IC50 was determined as 1.06 nM.

For `O=C1CCCC2(CN(C(=O)N3CC4(CC(Cc5ccc(S(=O)(=O)C(F)(F)F)cn5)C4)C3)C2)N1` [Example 263, 2-[6-[[5-(trifluoromethylsulfonyl)-2-pyridyl]methyl]-2-azaspiro[3.3]heptane-2-carbonyl]-2,5-diazaspiro[3.5]nonan-6-one], the 50% inhibitory concentration (IC50) came to 183 nM. In the case of `O=C1COCC2(CN(C(=O)N3CC4(CC(Cc5ccc(S(=O)(=O)C(F)(F)F)cn5)C4)C3)C2)N1` [Example 264, 2-[6-[[5-(trifluoromethylsulfonyl)-2-pyridyl]methyl]-2-azaspiro[3.3]heptane-2-carbonyl]-8-oxa-2,5-diazaspiro[3.5]nonan-6-one] it was 5.51 nM; in that of `N=S(=O)(c1ccc(CC2CC3(C2)CN(C(=O)N2CC4(CCC(=O)N4)C2)C3)c(F)c1)C(F)(F)F` (stereo not drawn) [Example 265, 2-[6-[[2-fluoro-4-(trifluoromethylsulfoni-midoyl)phenyl]methyl]-2-azaspiro[3.3]heptane-2-carbonyl]-2,5-diazaspiro[3.5]octan-6-one], 0.48 nM.

Take `O=C1CCCC2(CN(C(=O)N3CC4(CCN(Cc5cccc(S(=O)(=O)C(F)(F)F)c5)C4)C3)C2)N1` [Example 266, 2-[7-[[3-(trifluoromethylsulfonyl)phenyl]methyl]-2,7-diazaspiro[3.4]octane-2-carbonyl]-2,5-diazaspiro[3.5]nonan-6-one]: the midpoint of inhibition, the IC50, lay at 1380 nM. In the case of `O=C1CCCC2(CN(C(=O)N3CC4(CN(Cc5ccc(S(=O)(=O)C(F)(F)F)cc5F)C4)C3)C2)N1` [Example 267, 2-[6-[[2-fluoro-4-(trifluoromethylsulfonyl)phenyl]methyl]-2,6-diazaspiro[3.3]heptane-2-carbonyl]-2,5-diazaspiro[3.5]nonan-6-one] it was 1240 nM; in that of `CS(=O)(=O)c1cc(CC2CC3(C2)CN(C(=O)N2CC4(CCCC(=O)N4)C2)C3)cc(C(F)(F)F)c1` [Example 268, 2-[6-[[3-methylsulfonyl-5-(trifluoromethyl)phenyl]methyl]-2-azaspiro[3.3]heptane-2-carbonyl]-2,5-diazaspiro[3.5]nonan-6-one], 301 nM; in that of `O=C1CCCC2(CN(C(=O)N3CC4(CC(Cc5ccc(S(=O)(=O)C6CC6)cc5)C4)C3)C2)N1` [Example 269, 2-[6-[(4-cyclopropylsulfonylphe-nyl)methyl]-2-azaspiro[3.3]heptane-2-carbonyl]-2,5-diazaspiro[3.5]nonan-6-one], 473 nM. In the case of `N#Cc1ccc(CC2CC3(C2)CN(C(=O)N2CC4(CCCC(=O)N4)C2)C3)cc1C(F)(F)F` [Example 270] it was 72.4 nM. For `N#Cc1cc(CC2CC3(C2)CN(C(=O)N2CC4(CCCC(=O)N4)C2)C3)ccc1C(F)(F)F` [Example 271, 5-[[2-(6-oxo-2,5-diazaspiro[3.5]nonane-2-carbonyl)-2-azaspiro[3.3]heptan-6-yl]methyl]-2-(trifluoromethyl)benzoni-trile] the value was 31.6 nM. `N#Cc1cc(CC2CC3(C2)CN(C(=O)N2CC4(CCCC(=O)N4)C2)C3)cnc1C(F)(F)F` [Example 272, 5-[[2-(6-oxo-2,5-diazaspiro[3.5]nonane-2-carbonyl)-2-azaspiro[3.3]heptan-6-yl]methyl]-2-(trifluoromethyl)pyridine-3-carbonitrile] showed an IC50 of 795 nM. In the case of `N#Cc1ccc(CC2CC3(C2)CN(C(=O)N2CC4(CCCC(=O)N4)C2)C3)c(F)c1` [Example 273, 3-fluoro-4-[[2-(6-oxo-2,5-diazaspiro[3.5]nonane-2-carbonyl)-2-azaspiro[3.3]heptan-6-yl]methyl]benzonitrile] it was 68.2 nM; in that of `O=C1CCCC2(CN(C(=O)N3CC4(CC(Cn5cc(C(F)(F)F)cn5)C4)C3)C2)N1` [Example 274, 2-[6-[[4-(trifluoromethyl)pyrazol-1-yl]methyl]-2-azaspiro[3.3]heptane-2-carbonyl]-2,5-diazaspiro[3.5]nonan-6-one], 540 nM. In the case of `Cn1nc(CC2CC3(C2)CN(C(=O)N2CC4(CCCC(=O)N4)C2)C3)cc1C(F)(F)F` [Example 275, 2-[6-[[1-methyl-5-(trifluoromethyl)pyrazol-3-yl]methyl]-2-azaspiro[3.3]heptane-2-carbonyl]-2,5-diazaspiro[3.5]nonan-6-one] it was 104 nM. Consider `Cn1ncc(CC2CC3(C2)CN(C(=O)N2CC4(CCCC(=O)N4)C2)C3)c1C(F)(F)F` [Example 276], for which half-maximal inhibition (IC50) was put at 92.7 nM. Consider `Cn1ncc(C(F)(F)F)c1CC1CC2(C1)CN(C(=O)N1CC3(CCCC(=O)N3)C1)C2` [Example 277, 2-[6-[[2-methyl-4-(trifluoromethyl)pyrazol-3-yl]methyl]-2-azaspiro[3.3]heptane-2-carbonyl]-2,5-diazaspiro[3.5]nonan-6-one], for which the 50% inhibitory concentration (IC50) amounted to 195 nM. `O=C1CCCC2(CN(C(=O)N3CC4(CC(Cc5cc(C(F)(F)F)n[nH]5)C4)C3)C2)N1` [Example 278, 2-[6-[[3-(trifluoromethyl)-1H-pyrazol-5-y1]methyl]-2-azaspiro[3.3]heptane-2-carbonyl]-2,5-diazaspiro[3.5]nonan-6-one] returned an IC50 of 479 nM.

On to `O=C1CCCC2(CN(C(=O)N3CC4(CC(Cc5cc(C(F)F)n[nH]5)C4)C3)C2)N1` [Example 279, 2-[6-[[3-(difluoromethyl)-1H-pyrazol-5-yl]methyl]-2-azaspiro[3.3]heptane-2-carbonyl]-2,5-diazaspiro[3.5]nonan-6-one], for which it took 1030 nM to reach half-maximal inhibition (IC50). This IC50 is about 2.2-fold higher than that of the compound before. In the case of `O=C1CCC2(CN(C(=O)N3CC4(CC(S(=O)(=O)c5cccc(OC(F)(F)F)c5)C4)C3)C2)N1` [Example 280, 2-[6-[3-(trifluoromethoxy)phenyl]sulfonyl-2-azaspiro[3.3]heptane-2-carbonyl]2,5-diazaspiro[3.4]octan-6-one] it was 195 nM; in that of `O=C1CCC2(CN(C(=O)N3CC4(CCC(S(=O)(=O)c5ccc(C(F)(F)F)cc5)CC4)C3)C2)N1` [Example 281, 2-[7-[4-(trifluoromethyl)phenyl]sulfonyl-2-azaspiro[3.5]nonane-2-carbonyl]-2,5-diazaspiro[3.4]octan-6-one], 6.44 nM.

For orientation: IC50 means the midpoint of a concentration-inhibition curve.
